# Patent US20230115176A1 (Ra Pharmaceuticals, Inc., priority 2019, published 2023)
# Assays:
# Human C5 [1] = molecular target: T1, Human C5 (Homo sapiens, UniProt P01031); experiment: Red blood cell (RBC) hemolysis assay, luminescent (Example 13, Table 22); format: cell-based; conditions: sheep EA cells, […] C5-depleted human serum, 0.5 nM human C5, 1 hour 37° C., luminescence
# T1 construct: purchased Complement Technology
# Text: Compound CU0136 is a racemic mixture of Compound CU0186 and CU0187. Numbers in parenthesis following compound numbers indicate alternate enantiomers (as distinguished by retention time during chromatographical separation).
# [2] = Kinetic solubility in PBS pH 7.4, HPLC-UV (Example 21, Table 27); format: physicochemical; conditions: phosphate buffered saline, aqueous buffer, kinetic from dmso stock, 0.5 M PBS, shaken minimum 24 h at approximately 25° C., HPLC-UV 270 nm
# Outline: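 Supernatant measured by HPLC-UV (270 nm) against a DMSO calibration curve of 15.6–500.0 μM after filtration. Triplicate samples were made from 10 mM DMSO stock in 0.05 M phosphate buffer pH 7.4 (5% DMSO) and shaken at least 24 h at about 25 °C.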
# [3] = Permeability assay, unidirectional transport, Papp (Example 30, Table 34); format: in vitro ADME, canine; conditions: dog, pH 7.4; MDCK-WT cell monolayers, A-to-B, 3 μM test compound, 37° C., duplicate determinations
# Experimental: Permeability assays were carried out to provide a preliminary indication of suitability for oral dosing and compound permeability across the blood brain barrier. Unidirectional and bidirectional compound transport across Madin Darby canine kidney (MDCK) cell monolayers was assessed. For unidirectional transport assessment, transport across MDCK wild type (MDCK-WT) cell monolayers was assessed. For bidirectional transport, transport across MDCK-MDR1 cell monolayers was assessed. MDCK-MDR1 cells express the MDR1 gene encoding the P-glycoprotein (P-gp) efflux protein.
# MDCK-WT and MDCK-MDR1 cells were plated onto permeable polycarbonate supports in 12-well Costar transwell plates and allowed to grow and differentiate for 3 days. After 3 days in culture, the culture medium (DMEM supplemented with 10% FBS) was removed from both sides of the transwell inserts and cells were rinsed with warm HBSS. After the rinse step, the chambers were filled with warm transport buffer (HBSS containing 10 mM HEPES, 0.25% BSA, pH 7.4) and the plates were pre-incubated at 37° C. for 30 minutes prior to TEER (Trans Epithelial Electric Resistance) measurements.
# The buffer in the donor chamber (apical side for A-to-B assay, basolateral side for B-to-A assay) was removed and replaced with the working solution (3 μM test compound and 10 μM for control compounds in transport buffer). The plates were then placed at 37° C. under light agitation. At designated time points (30, 60 and 90 min), an aliquot of transport buffer from the receiver chamber was removed and replenished with fresh transport buffer. Samples were quenched with ice-cold ACN containing internal standard and then centrifuged to pellet protein. Resulting supernatants were further diluted with 50/50 ACN/H2O (Atenolol diluted in just water) and submitted for LC-MS/MS analysis. Apparent permeability (Pap) values were calculated from duplicate determinations. Atenolol and propranolol were tested as low and […] permeability references.
# Papp values indicate extent of compound permeation across monolayers.
# [4] = molecular target: human C5 complement protein (Homo sapiens, UniProt P01031); experiment: Surface plasmon resonance (SPR), immobilized human C5, 37° C. (Example 18, Table 24); format: binding; conditions: lowest value obtained where a range of concentrations was analyzed
# Chain of human C5 complement protein (P01031 19-1676): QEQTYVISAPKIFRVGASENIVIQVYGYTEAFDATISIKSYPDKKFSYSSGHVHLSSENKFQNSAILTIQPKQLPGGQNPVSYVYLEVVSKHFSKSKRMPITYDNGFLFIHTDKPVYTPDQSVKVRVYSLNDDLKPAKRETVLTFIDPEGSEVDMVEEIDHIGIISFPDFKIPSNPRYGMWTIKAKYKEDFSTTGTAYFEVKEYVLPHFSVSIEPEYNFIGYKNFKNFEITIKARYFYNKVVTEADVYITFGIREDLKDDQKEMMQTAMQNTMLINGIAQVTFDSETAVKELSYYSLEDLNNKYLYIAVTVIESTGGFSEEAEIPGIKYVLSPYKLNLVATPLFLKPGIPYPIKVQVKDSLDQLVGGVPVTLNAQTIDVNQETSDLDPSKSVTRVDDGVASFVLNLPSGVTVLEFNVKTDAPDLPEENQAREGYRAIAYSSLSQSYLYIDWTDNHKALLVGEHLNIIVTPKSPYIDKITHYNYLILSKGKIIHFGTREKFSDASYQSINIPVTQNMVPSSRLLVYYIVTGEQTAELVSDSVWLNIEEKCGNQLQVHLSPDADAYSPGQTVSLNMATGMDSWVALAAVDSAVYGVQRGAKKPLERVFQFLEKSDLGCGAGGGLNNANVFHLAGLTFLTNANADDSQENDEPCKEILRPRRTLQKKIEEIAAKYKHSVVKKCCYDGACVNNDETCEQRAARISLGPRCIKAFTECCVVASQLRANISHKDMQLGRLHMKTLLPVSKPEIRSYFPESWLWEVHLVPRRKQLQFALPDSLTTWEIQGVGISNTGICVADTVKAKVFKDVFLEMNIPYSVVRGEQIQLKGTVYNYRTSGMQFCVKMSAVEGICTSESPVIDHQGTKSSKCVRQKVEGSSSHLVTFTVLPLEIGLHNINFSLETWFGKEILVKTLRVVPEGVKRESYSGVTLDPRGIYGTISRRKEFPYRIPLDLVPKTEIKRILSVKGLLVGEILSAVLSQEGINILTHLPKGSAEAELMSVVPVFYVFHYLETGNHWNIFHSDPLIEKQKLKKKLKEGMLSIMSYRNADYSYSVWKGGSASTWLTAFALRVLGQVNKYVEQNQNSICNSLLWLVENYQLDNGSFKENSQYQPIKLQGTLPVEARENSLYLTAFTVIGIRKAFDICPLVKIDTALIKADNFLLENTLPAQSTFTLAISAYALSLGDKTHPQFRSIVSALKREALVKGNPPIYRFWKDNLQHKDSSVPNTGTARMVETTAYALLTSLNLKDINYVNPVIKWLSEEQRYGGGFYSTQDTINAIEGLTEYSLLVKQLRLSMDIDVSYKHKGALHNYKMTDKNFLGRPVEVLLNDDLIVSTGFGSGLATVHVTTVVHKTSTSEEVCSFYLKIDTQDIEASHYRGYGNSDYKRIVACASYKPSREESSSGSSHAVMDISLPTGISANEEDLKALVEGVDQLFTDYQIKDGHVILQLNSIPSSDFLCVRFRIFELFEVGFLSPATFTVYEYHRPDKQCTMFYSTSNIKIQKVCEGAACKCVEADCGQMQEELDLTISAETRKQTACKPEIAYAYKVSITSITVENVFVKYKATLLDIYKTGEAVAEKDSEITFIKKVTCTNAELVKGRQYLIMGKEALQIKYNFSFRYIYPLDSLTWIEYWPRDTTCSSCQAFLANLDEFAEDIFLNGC
# Human C5 [5] = molecular target: T1, Human C5; experiment: Red blood cell (RBC) hemolysis assay, luminescent (Example 28, Table 32); format: cell-based; conditions: sheep EA cells, 1.5% C5-depleted human serum, 0.5 nM human C5, 1 hour at 37° C., luminescence (Table 32)
# T1 sequence (P01031 19-1676): as above
SMILES,solubility kinetic [2],Papp A→B at 3 μM [3],Kd [4],IC50 (Human C5 [1]),IC50 (Human C5 [5])
COc1ccc(N2CCCN(Cc3cccc4c3c(Cl)cn4CC(=O)N(C)C)C2=O)cc1OCCC[C@H]1C[C@H]1C (racemic) [CU0515],< 10 µM,–,0.32 nM,–,–
COc1ccc(N2CCCN(Cc3ccnc4c3c(Cl)cn4CC(=O)N(C)C)C2=O)cc1OCCC[C@H]1C[C@H]1C (racemic) [CU0516],30 µM,–,0.15 nM,–,–
CCCCCOc1cc(N2CCCN(Cc3ccnc4c3c(Cl)cn4C3CCOCC3)C2=O)ccc1OC [CU0513],< 10 µM,9.6 ×10⁻⁶ cm/s,–,–,–
CCCCCOc1cc(N2CCCN(Cc3ccnc4c3c(Cl)cn4CC(=O)N3CC[C@@H](N(C)C)C3)C2=O)ccc1OC [CU0520],366 µM,3.9 ×10⁻⁶ cm/s,–,–,–
COc1ccc(N2CCCN(Cc3ccnc4c3c(Cl)cn4CC(=O)N3CCOC(CN(C)C)C3)C2=O)cc1OCCCC1CC1 (stereo not shown) [CU0523],486 µM,0.7 ×10⁻⁶ cm/s,–,–,–
CCCCCOc1cc(N2CCCN(Cc3ccnc4c3c(Cl)cn4CC(=O)N(C)CCC#N)C2=O)ccc1OC [CU0528],50 µM,–,0.057 nM,–,–
CCCCCOc1cc(N2CCCN(Cc3ccnc4c3c(Cl)cn4CC(=O)N3CCCC3)C2=O)ccc1OC [CU0541],61 µM,–,0.31 nM,–,–
CCCCCOc1cc(N2CCCN(Cc3cccc4c3c(Br)cn4CC(=O)N(C)C)C2=O)ccc1OC [CU0543],256 µM,–,0.016 nM,–,–
COc1cc(CC(=O)N2CCOC(CN(C)C)C2)ccc1CN1CCCN(c2ccc(OC)c(OCCCC3CC3)c2)C1=O (stereo not shown) [CU0550],455 µM,–,0.031 nM,–,–
COc1cc(CC(=O)N2CCNC(=O)C2)ccc1CN1CCCN(c2ccc(OC)c(OCCCC3CC3)c2)C1=O [CU0562],480 µM,–,0.498 nM,–,–
COc1ccc(N2CCCN(Cc3ccnc4c3c(Cl)cn4CC(=O)N(C)C)C2=O)cc1OCCC[C@H]1C[C@@H]1C [CU0610],37 µM,–,0.207 nM,–,–
COc1cc(CNC(C)=O)ccc1CN1CCCN(c2ccc(OC)c(OCCCCC3CC3)c2)C1=O [CU0613],190 µM,–,0.533 nM,–,–
COc1cc(CC(=O)N(C)C)ccc1CN1CCCN(c2ccc(OC)c(OCCCCC(C)(C)C)c2)C1=O [CU0638],30 µM,–,0.094 nM,–,–
CCCCCOc1cc(N2CCCN(Cc3cccc4c3ccn4[C@H]3CCN(C)C3=O)C2=O)ccc1OC [CU0644],450 µM,–,1.11 nM,–,–
COc1cc(CN)ccc1CN1CCCN(c2ccc(OC)c(OCCCC3CC3)c2)C1=O [CU0657],–,–,1.32 nM,–,–
COc1cc(CCNC(C)=O)ccc1CN1CCCN(c2ccc(OC)c(OCCCC3CC3)c2)C1=O [CU0668],–,–,2.53 nM,–,–
COc1cc(CNC(=O)OC(C)(C)C)ccc1CN1CCCN(c2ccc(OC)c(OCCCC3CC3)c2)C1=O [CU0669],–,–,0.041 nM,–,–
CCCCCOc1cc(N2CCCN(Cc3ccc(CCN4CCCC4(C)C)cc3OC)C2=O)ccc1OC [CU0671],397 µM,–,0.275 nM,–,–
CCCCCOc1cc(N2CCCN(Cc3cccc4c3ccn4CC3(O)CCN(CC(=O)N(C)C)CC3)C2=O)ccc1OC [CU0675],430 µM,–,0.86 nM,–,–
COc1cc(CN)ccc1CN1CCCN(c2ccc(OC)c(OCCCCC3CC3)c2)C1=O [CU0686],–,–,0.618 nM,–,–
CCCCCOc1cc(N2CCCN(Cc3ccc(CCN4[C@H](C)CC[C@@H]4C)cc3OC)C2=O)ccc1OC [CU0690],–,–,1.69 nM,–,–
CCCCCOc1cc(N2CCCN(Cc3ccc(CCNC(C)=O)cc3OC)C2=O)ccc1OC [CU0695],–,–,1.35 nM,–,–
COc1cc(CCN2CCCC2)ccc1CN1CCCN(c2ccc(OC)c(OCCCCC3CC3)c2)C1=O [CU0718],–,–,0.245 nM,–,–
COc1cc(CC(=O)N2CC[C@H](N(C)C)C2)ccc1CN1C(=O)N(c2ccc(OC)c(OCCCC3CC3)c2)CC[C@@H]1C [SC0101],–,4.7 ×10⁻⁶ cm/s,–,–,0.9 nM
COc1cc(Cc2ccncn2)ccc1CN1C(=O)N(c2ccc(OC)c(OCCCC3CC3)c2)CC[C@@H]1C [SC0102],–,18.2 ×10⁻⁶ cm/s,–,–,0.9 nM
CCCCCOc1cc(N2CC[C@H](C)N(Cc3ccnc4c3c(Cl)cn4CC(=O)N3CC(N4CCOCC4)C3)C2=O)ccc1OC [SC0117],–,12.6 ×10⁻⁶ cm/s,–,–,1.4 nM
COc1cc(CC(=O)N[C@H]2CN(C)C[C@H]2F)ccc1CN1C(=O)N(c2ccc(OC)c(OCCCC3CC3)c2)CC[C@@H]1C [SC0123],–,4.8 ×10⁻⁶ cm/s,–,–,1.5 nM

# Further lines, with some results ahead:
solubility kinetic [2],Papp A→B at 3 μM [3],Kd [4],SMILES,IC50 (Human C5 [1]),IC50 (Human C5 [5])
479 µM,2.4 ×10⁻⁶ cm/s,–,CCCCCOc1cc(N2CCCN(Cc3ccc(CC(=O)N4CCOC(CN(C)C)C4)cc3OC)C2=O)ccc1OC (racemic) [CU0136],12.5 nM,–
< 10 µM,–,0.038 nM,COc1ccc(N2CCCN(Cc3cccc4c3c(Cl)cn4CC(=O)N(C)C)C2=O)cc1OCCC[C@H]1C[C@@H]1C (racemic) [CU0524],–,–
10 µM,–,1.2 nM,CCCCCOc1cc(N2CCCN(Cc3ccnc4c3c(Cl)cn4CC(=O)NOC)C2=O)ccc1OC [CU0500],–,–
413 µM,3.9 ×10⁻⁶ cm/s,–,CCCCCOc1cc(N2CCCN(Cc3ccnc4c3c(Cl)cn4CC(=O)N3CC[C@H](N(C)C)C3)C2=O)ccc1OC [CU0521],–,–
< 10 µM,–,0.158 nM,CCCCCOc1cc(N2CCCN(Cc3ccnc4c3c(Cl)cn4CC(=O)NC3COC3)C2=O)ccc1OC [CU0540],–,–
< 10 µM,–,0.118 nM,CCCCCOc1cc(N2CCCN(Cc3ccnc4c3c(Cl)cn4CC(=O)NC3(C)COC3)C2=O)ccc1OC [CU0567],–,–
131 µM,–,0.302 nM,COc1cc(CC(=O)N2CCOCC2)ccc1CN1CCCN(c2ccc(OC)c(OCCCC3CCC3)c2)C1=O [CU0589],–,–
< 10 µM,–,0.747 nM,COc1cc(CC(=O)N2CCOCC2)ccc1CN1CCCN(c2ccc(OC)c(OCCCCC3CC3)c2)C1=O [CU0598],–,–
–,–,1.15 nM,COc1cc(CCN2CCCC2)ccc1CN1CCCN(c2ccc(OC)c(OCCCC3CC3)c2)C1=O [CU0662],–,–
–,–,0.078 nM,COc1cc(CCN2CCCC2)ccc1CN1CCCN(c2ccc(OC)c(OCCCC3CCC3)c2)C1=O [CU0699],–,–
–,–,2.32 nM,CCCCCOc1cc(N2CCCN(Cc3ccc(CCNC=O)cc3OC)C2=O)ccc1OC [CU0704],–,–
–,–,0.018 nM,COc1cc(CN)ccc1CN1CCCN(c2ccc(OC)c(OCCCC3CCC3)c2)C1=O [CU0708],–,–
141 µM,21.7 ×10⁻⁶ cm/s,–,CCCCCOc1cc(N2CC[C@H](C)N(Cc3ccnc4c3c(Cl)cn4CC(=O)N(C)C)C2=O)ccc1OC [SC0108],–,–
–,2.5 ×10⁻⁶ cm/s,–,CCCCCOc1cc(N2CC[C@H](C)N(Cc3ccnc4c3c(Cl)cn4CC(=O)N3CC(C)(O)C3)C2=O)ccc1OC [SC0111],–,1.3 nM
–,3 ×10⁻⁶ cm/s,–,CCN1CC[C@@H](N(C)C(=O)Cc2ccc(CN3C(=O)N(c4ccc(OC)c(OCCCC5CC5)c4)CC[C@@H]3C)c(OC)c2)C1 [SC0144],–,2.1 nM
–,0.7 ×10⁻⁶ cm/s,–,CCCCCOc1cc(N2CC[C@H](C)N(Cc3ccnc4c3c(Cl)cn4CC(=O)N[C@H]3CCN(C)C3)C2=O)ccc1OC [SC0147],–,2.2 nM
